Experimental data taken from patent US7795290B2 (Genentech, Inc., priority 2004, dated 2010).

Each compound was assayed against T1, AKT1 (Homo sapiens, UniProt P31749) (assay: HTS ATP-utilizing enzyme assay, off-chip mobility-shift (Caliper HTS 250)). Settings: kinase named = inhibitory activity/selectivity; test compound 10 μM; active = greater than three-sigma from mean.
T1 construct: purchased Upstate 14-276
Type: biochemical
How it was run: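 AKT1 activity was measured by off-chip mobility shift (Caliper HTS 250) as the ratio of peptide substrate to phosphorylated product. Test compound was at 10 μM, with 2.5 h incubation at 20–22° C. EDTA wells served as 100% control and DMSO wells as 0%. Hits were called at three-sigma limits.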

T1 sequence (P31749 whole entry): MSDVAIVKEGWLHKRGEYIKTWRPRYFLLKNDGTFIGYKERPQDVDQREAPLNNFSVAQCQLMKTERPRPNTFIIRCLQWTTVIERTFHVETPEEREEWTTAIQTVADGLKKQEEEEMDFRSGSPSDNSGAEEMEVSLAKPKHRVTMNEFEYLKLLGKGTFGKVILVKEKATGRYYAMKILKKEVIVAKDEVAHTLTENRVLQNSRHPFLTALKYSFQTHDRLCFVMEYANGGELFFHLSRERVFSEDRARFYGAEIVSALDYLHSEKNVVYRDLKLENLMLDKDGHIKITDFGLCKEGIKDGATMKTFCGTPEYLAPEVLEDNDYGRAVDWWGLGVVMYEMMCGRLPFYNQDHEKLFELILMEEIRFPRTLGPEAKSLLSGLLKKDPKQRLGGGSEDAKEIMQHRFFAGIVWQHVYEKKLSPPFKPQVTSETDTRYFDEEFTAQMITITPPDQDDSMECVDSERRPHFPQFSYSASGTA

Activity, AKT1:
O=C(Nc1ccc2ncsc2c1)c1csc(N(CCCN2CCOCC2)C(=O)c2cccs2)n1 [N-(benzo[d]thiazol-6-yl)-2-(N-(3-morpholinopropyl)thiophene-2-carboxamido)thiazole-4-carboxamide], CC(CO)NC(=O)CCCN(C(=O)c1cccs1)c1nc(-c2cc3ccccc3o2)cs1 (stereo not drawn) [N-(4-(benzofuran-2-yl)thiazol-2-yl)-N-(4-(1-hydroxypropan-2-ylamino)-4-oxobutyl)thiophene-2-carboxamide], NC(=O)c1ccc(-c2csc(N(CCCN3CCOCC3)C(=O)c3cccs3)n2)cc1 [N-(4-(4-carbamoylphenyl)thiazol-2-yl)-N-(3-morpholinopropyl)thiophene-2-carboxamide], O=C(O)c1ccc(-c2csc(N(CCCN3CCOCC3)C(=O)c3cccs3)n2)cc1 [4-(2-(N-(3-morpholinopropyl)thiophene-2-carboxamido)thiazol-4-yl)benzoic acid], O=C(c1cccs1)N(CCCN1CCN(CCO)CC1)c1nc(-c2cc3ccccc3o2)cs1 [N-(4-(benzofuran-2-yl)thiazol-2-yl)-N-(3-(4-(2-hydroxyethyl)piperazin-1-yl)propyl)thiophene-2-carboxamide], COc1ccc(OC)c(-c2csc(N(CCCN3CCCCCC3)C(=O)c3ccccc3)n2)c1 [N-(3-(azepan-1-yl)propyl)-N-(4-(2,5-dimethoxyphenyl)thiazol-2-yl)benzamide], CCN(CC)CCCN(C(=O)c1ccco1)c1nc(-c2ccccc2)cs1 [N-(3-(diethylamino)propyl)-N-(4-phenylthiazol-2-yl)furan-2-carboxamide], COc1ccc(-c2csc(N(CCCN3CCOCC3)C(=O)c3cccs3)n2)c(OC)c1 [N-(4-(2,4-dimethoxyphenyl)thiazol-2-yl)-N-(3-morpholinopropyl)thiophene-2-carboxamide], O=C(c1cccs1)N(CCCN1CCOCC1)c1nc(-c2cccs2)cs1 [N-(3-morpholinopropyl)-N-(4-(thiophen-2-yl)thiazol-2-yl)thiophene-2-carboxamide], COC(=O)C1CCCN1CCCN(C(=O)c1cccs1)c1nc(-c2cc3ccccc3o2)cs1 (stereo not drawn) [methyl 1-(3-(N-(4-(benzofuran-2-yl)thiazol-2-yl)thiophene-2-carboxamido)propyl)pyrrolidine-2-carboxylate], CN(C)CCCC(=O)NCCCN(C(=O)c1cccs1)c1nc(-c2cc3ccccc3o2)cs1 [N-(4-(benzofuran-2-yl)thiazol-2-yl)-N-(3-(4-(dimethylamino)butanamido)propyl)thiophene-2-carboxamide], COc1ccc(-c2csc(N(CCCN3CCOCC3)C(=O)C3CCCC3)n2)cc1OC [N-(4-(3,4-dimethoxyphenyl)thiazol-2-yl)-N-(3-morpholinopropyl)cyclopentanecarboxamide], O=C(NCCO)C1CCCN(C(=O)CCN(C(=O)c2cccs2)c2nc(-c3cc4ccccc4o3)cs2)C1 (stereo not drawn) [1-(3-(N-(4-(benzofuran-2-yl)thiazol-2-yl)thiophene-2-carboxamido)propanoyl)-N-(2-hydroxyethyl)piperidine-3-carboxamide], COc1ccc(OC)c(-c2csc(N(CCCN3CCOCC3)C(=O)c3cccs3)n2)c1 [N-(4-(2,5-dimethoxyphenyl)thiazol-2-yl)-N-(3-morpholinopropyl)thiophene-2-carboxamide], Cc1nc(-c2cnccn2)sc1-c1csc(N(CCCN2CCOCC2)C(=O)c2cccs2)n1 [N-(4′-methyl-2′-(pyrazin-2-yl)-4,5′-bithiazol-2-yl)-N-(3-morpholinopropyl)thiophene-2-carboxamide], Cn1cccc1C(=O)N(CCCN1CCOCC1)c1nc(-c2cc(-c3ccccc3)no2)cs1 [1-methyl-N-(3-morpholinopropyl)-N-(4-(3-phenylisoxazol-5-yl)thiazol-2-yl)-1H-pyrrole-2-carboxamide], O=C(Nc1ccc2c(c1)OCCO2)c1csc(N(CCCN2CCOCC2)C(=O)c2cccs2)n1 [N-(2,3-dihydrobenzo[b][1,4]dioxin-6-yl)-2-(N-(3-morpholinopropyl)thiophene-2-carboxamido)thiazole-4-carboxamide], COc1ccc(-c2csc(N(CCCN3CCOCC3)C(=O)c3ccccc3F)n2)cc1 [2-fluoro-N-(4-(4-methoxyphenyl)thiazol-2-yl)-N-(3-morpholinopropyl)benzamide], O=C(c1cccs1)N(CCCN1CCOCC1)c1nc(-c2ccc(Cl)c(Cl)c2)cs1 [N-(4-(3,4-dichlorophenyl)thiazol-2-yl)-N-(3-morpholinopropyl)thiophene-2-carboxamide], O=C(c1cccs1)N(CCCN1CCCC1CO)c1nc(-c2cc3ccccc3o2)cs1 (stereo not drawn) [N-(4-(benzofuran-2-yl)thiazol-2-yl)-N-(3-(2-(hydroxymethyl)pyrrolidin-1-yl)propyl)thiophene-2-carboxamide], COc1ccc(-c2csc(N(CCCCCN3CCOCC3)C(=O)c3cccs3)n2)cc1OC [N-(4-(3,4-dimethoxyphenyl)thiazol-2-yl)-N-(5-morpholinopentyl)thiophene-2-carboxamide], O=C(c1cccs1)N(CCCC(=O)N(CCCCO)C1CCCCC1)c1nc(-c2cc3ccccc3o2)cs1 [N-(4-(benzofuran-2-yl)thiazol-2-yl)-N-(4-(cyclohexyl(4-hydroxybutyl)amino)-4-oxobutyl)thiophene-2-carboxamide], NC(=O)C1CCCCN1CCCN(C(=O)c1cccs1)c1nc(-c2cc3ccccc3o2)cs1 (stereo not drawn) [1-(3-(N-(4-(benzofuran-2-yl)thiazol-2-yl)thiophene-2-carboxamido)propyl)piperidine-2-carboxamide], O=C(CCN(C(=O)c1cccs1)c1nc(-c2cc3ccccc3o2)cs1)N1CCCC(O)C1 (stereo not drawn) [N-(4-(benzofuran-2-yl)thiazol-2-yl)-N-(3-(3-hydroxypiperidin-1-yl)-3-oxopropyl)thiophene-2-carboxamide], O=C(CCN(C(=O)c1cccs1)c1nc(-c2cc3ccccc3o2)cs1)N1CCC(O)C1 (stereo not drawn) [N-(4-(benzofuran-2-yl)thiazol-2-yl)-N-(3-(3-hydroxypyrrolidin-1-yl)-3-oxopropyl)thiophene-2-carboxamide], CCOC(=O)Cc1csc(NC(=O)c2csc(N(CCCN3CCOCC3)C(=O)c3cccs3)n2)n1 [ethyl 2-(2-(2-(N-(3-morpholinopropyl)thiophene-2-carboxamido)thiazole-4-carboxamido)thiazol-4-yl)acetate], O=C(c1cccs1)N(CCCN1CCCC(CO)C1)c1nc(-c2cc3ccccc3o2)cs1 (stereo not drawn) [N-(4-(benzofuran-2-yl)thiazol-2-yl)-N-(3-(3-(hydroxymethyl)piperidin-1-yl)propyl)thiophene-2-carboxamide], O=C(c1cccs1)N(CCCN1CCOCC1)c1nc(-c2cccc(C(F)(F)F)c2)cs1 [N-(3-morpholinopropyl)-N-(4-(3-(trifluoromethyl)phenyl)thiazol-2-yl)thiophene-2-carboxamide], O=C(c1ccc(F)cc1)N(CCCN1CCOCC1)c1nc(-c2ccccc2)cs1 [4-fluoro-N-(3-morpholinopropyl)-N-(4-phenylthiazol-2-yl)benzamide], CC(CO)NC(=O)CCN(C(=O)c1cccs1)c1nc(-c2cc3ccccc3o2)cs1 (stereo not drawn) [N-(4-(benzofuran-2-yl)thiazol-2-yl)-N-(3-(1-hydroxypropan-2-ylamino)-3-oxopropyl)thiophene-2-carboxamide], O=C(c1cccs1)N(CCCN1CCCC1)c1nc(-c2ccccc2)cs1 [N-(4-phenylthiazol-2-yl)-N-(3-(pyrrolidin-1-yl)propyl)thiophene-2-carboxamide], Cc1cc(C(=O)NCCCN(C(=O)c2cccs2)c2nc(-c3cc4ccccc4o3)cs2)nn1C [N-(3-(N-(4-(benzofuran-2-yl)thiazol-2-yl)thiophene-2-carboxamido)propyl)-1,5-dimethyl-1H-pyrazole-3-carboxamide], O=C(NCCO)C1CCN(C(=O)CCCN(C(=O)c2cccs2)c2nc(-c3cc4ccccc4o3)cs2)CC1 [1-(4-(N-(4-(benzofuran-2-yl)thiazol-2-yl)thiophene-2-carboxamido)butanoyl)-N-(2-hydroxyethyl)piperidine-4-carboxamide], O=C(c1ccco1)N(CCCN1CCCCCC1)c1nc(-c2ccccc2)cs1 [N-(3-(azepan-1-yl)propyl)-N-(4-phenylthiazol-2-yl)furan-2-carboxamide], COc1ccc(-c2csc(N(CCCN3CCOCC3)C(=O)c3ccc(F)cc3)n2)cc1 [4-fluoro-N-(4-(4-methoxyphenyl)thiazol-2-yl)-N-(3-morpholinopropyl)benzamide], O=C(c1cccs1)N(CCCN1CCC(O)C1)c1nc(-c2cc3ccccc3o2)cs1 (stereo not drawn) [N-(4-(benzofuran-2-yl)thiazol-2-yl)-N-(3-(3-hydroxypyrrolidin-1-yl)propyl)thiophene-2-carboxamide], O=C(c1cccs1)N(CCCN1CCOCC1)c1nc(-c2ccc(F)c(F)c2)cs1 [N-(4-(3,4-difluorophenyl)thiazol-2-yl)-N-(3-morpholinopropyl)thiophene-2-carboxamide], CN(C)CCN1CCN(CCCN(C(=O)c2cccs2)c2nc(-c3cc4ccccc4o3)cs2)CC1 [N-(4-(benzofuran-2-yl)thiazol-2-yl)-N-(3-(4-(2-(dimethylamino)ethyl)piperazin-1-yl)propyl)thiophene-2-carboxamide], O=C(c1cccs1)N(CCCCN1CCOCC1)c1nc(-c2cc3ccccc3o2)cs1 [N-(4-(benzofuran-2-yl)thiazol-2-yl)-N-(4-morpholinobutyl)thiophene-2-carboxamide]
